Assay results reported in the NIST ThermoML archive (doi:10.1021/je3007666).

Test: relative permittivity at zero frequency (dimensionless); xn = mol fraction of the nth substance listed
Details: 100 kPa, Liquid, Dielectrometer

CC(C)CO [2-methyl-1-propanol] + CC(C)(C)O
relative permittivity at zero frequency
Details	288.15 K	293.15 K	298.15 K	303.15 K	308.15 K
x2 = 0	19.51	18.71	17.96	17.23	16.53
x2 = 0.0497	19.46	18.65	17.85	17.09	16.37
x2 = 0.0999	19.37	18.52	17.74	16.96	16.21
x2 = 0.1502	19.24	18.38	17.57	16.78	16.05
x2 = 0.2002	19.09	18.24	17.43	16.62	15.84
x2 = 0.2497	18.94	18.08	17.25	16.42	15.63
x2 = 0.2998	18.78	17.89	17.08	16.22	15.44
x2 = 0.3507	18.6	17.71	16.88	16.01	15.2
x2 = 0.4003	18.43	17.53	16.7	15.8	14.97
x2 = 0.4497	18.26	17.36	16.49	15.57	14.74
x2 = 0.4998	18.11	17.15	16.3	15.34	14.47
x2 = 0.5501	17.93	16.96	16.07	15.07	14.22
x2 = 0.6012	17.74	16.74	15.83	14.8	13.93
x2 = 0.649	17.53	16.5	15.58	14.52	13.61
x2 = 0.7003	17.3	16.24	15.28	14.2	13.27
x2 = 0.751	17.02	15.93	14.96	13.84	12.91
x2 = 0.8007	16.68	15.59	14.59	13.46	12.49
x2 = 0.8499	16.3	15.17	14.17	13.03	12.06
x2 = 0.9002	15.8	14.67	13.69	12.53	11.55
x2 = 0.9489	15.21	14.08	13.13	11.97	11.01

CC(C)CO [2-methyl-1-propanol] + CCC(C)O
relative permittivity at zero frequency
Details	288.15 K	293.15 K	298.15 K	303.15 K	308.15 K
x2 = 0	19.51	18.71	17.96	17.23	16.53
x2 = 0.0488	19.46	18.66	17.9	17.17	16.47
x2 = 0.1011	19.41	18.61	17.85	17.11	16.4
x2 = 0.1488	19.36	18.55	17.78	17.05	16.34
x2 = 0.2005	19.31	18.49	17.72	16.98	16.27
x2 = 0.2489	19.25	18.43	17.66	16.92	16.2
x2 = 0.3013	19.2	18.38	17.59	16.85	16.13
x2 = 0.3511	19.14	18.31	17.53	16.78	16.05
x2 = 0.3993	19.09	18.25	17.46	16.7	15.97
x2 = 0.4473	19.03	18.19	17.39	16.63	15.89
x2 = 0.4984	18.98	18.13	17.32	16.56	15.81
x2 = 0.5512	18.92	18.06	17.25	16.48	15.73
x2 = 0.5999	18.87	18	17.18	16.4	15.65
x2 = 0.649	18.81	17.94	17.1	16.32	15.56
x2 = 0.7017	18.76	17.88	17.03	16.24	15.48
x2 = 0.7502	18.71	17.81	16.96	16.16	15.39
x2 = 0.7989	18.66	17.75	16.89	16.08	15.3
x2 = 0.851	18.61	17.69	16.81	16	15.21
x2 = 0.9003	18.56	17.63	16.74	15.92	15.12
x2 = 0.9499	18.51	17.57	16.67	15.83	15.03
